The test can be described thus: MT-4 HIV High Resolution Antiviral Assay: Assay protocol is identical to that described for the MT-4 antiviral assay with the following changes: Each drug is run in 2 series of quadruplicates with different starting concentrations for each series and 19 1.5 fold dilutions performed across the plate. […] Data is analyzed and Hill coefficients determined in Graph Pad Prism (San Diego, Calif.).

Turning to `CC(C)(C)C[C@]1(c2ccc(-c3nncn3C(F)F)cc2F)NC(=N)N([C@H](COC(=O)C2(C(F)(F)F)CC2)c2ccc(Cl)c(-n3ncnc3C(F)F)c2)C1=O`, the EC50 (usually the concentration giving half of the maximal effect) stood at 76.7 nM. The same measure for `CC(C)(C)C[C@]1(c2ccc(-c3ncccn3)cc2)NC(=N)N([C@H](COC(=O)NC2(C(F)(F)F)CC2)c2ccc(Cl)c(C3=NC=NC3C(F)F)c2)C1=O` (stereo partly drawn): 6.81 nM; for `CC(C)(C)C[C@]1(c2ccc(-c3cnn(C(F)F)c3)c(F)c2F)NC(=N)N([C@H](COC(=O)NC2(C)CC2)c2ccc(Cl)c(-n3cncn3)c2)C1=O`: 8.79 nM; for `CC(C)(C)C[C@]1(c2ccc(-c3cnn(C(F)F)c3)cc2)NC(=N)N([C@H](COC(=O)NC2(C(F)(F)F)CC2)c2ccc(-n3ncnc3C(F)F)cc2)C1=O`: 134 nM.

For `CC(C)(C)C[C@]1(c2ccc(-c3cnn(C(F)F)c3)cc2)NC(=N)N([C@H](COC(=O)NC2(C(F)(F)F)CC2)c2ccc(Cl)c(-n3ncnc3C(F)F)c2)C1=O`, it took 28.1 nM to reach a half-maximal effect (EC50). In the case of `CC(C)(C)C[C@H]1C(=O)N([C@H](COC(=O)NC2(C(F)(F)F)CC2)c2ccc(F)c(-c3ncnn3C(F)F)c2)C(=N)N1c1ccc(-c2cnn(C(F)F)c2)cc1`, the EC50 turned out to be 28.1 nM.

Consider `CC(C)(C)C[C@]1(c2ccc(-c3ccn(C4CC4)n3)cc2F)NC(=N)C([C@H](COC(=O)NC2(C(F)(F)F)CC2)c2ccc(Cl)c(-n3ncnc3C(F)F)c2)C1=O` (stereo partly drawn), for which the response was half-maximal at 18.5 nM (EC50).

Regarding `CC(C)(C)C[C@]1(c2ccc(-c3ccn(C4CC4)n3)cc2)NC(=N)C([C@H](COC(=O)NC2(C(F)(F)F)CC2)c2ccc(Cl)c(-n3ncnc3C(F)F)c2)C1=O` (stereo partly drawn), the EC50 came to 11.5 nM. Turning to `CC(C)(C)C[C@]1(c2ccc(-c3cnn(C4CC4)n3)c(F)c2)NC(=N)N([C@H](COC(=O)NC2(C(F)(F)F)CC2)c2ccc(Cl)c(-c3ncnn3C(F)F)c2)C1=O`, the EC50 stood at 7.92 nM.

For the compound `CC(C)(C)C[C@H]1C(=O)N([C@H](COC(=O)NC(C)(C)C(F)F)c2ccc(Cl)c(-c3ncnn3C(F)F)c2)C(=N)N1c1ccc(-c2ncccn2)cc1`, the EC50 is 12 nM. The same measure for `CC(C)(C)C[C@]1(c2ccc(-c3cnn(C4CC4)n3)cc2)NC(=N)N([C@H](COC(=O)NC2(C(F)(F)F)CC2)c2ccc(Cl)c(-c3ncnn3C(F)F)c2)C1=O`: 16.5 nM; for `CC(C)(C)C[C@]1(c2ccc(-c3cnccn3)cc2)NC(=N)C([C@H](COC(=O)NC2(C(F)(F)F)CC2)c2ccc(Cl)c(-c3ncn[nH]3)c2)C1=O` (stereo partly drawn): 80.4 nM. The same measure for `CC(C)(F)C[C@H]1C(=O)N([C@H](COC(=O)NC(C)(C)C(F)F)c2ccc(Cl)c(-c3ncnn3C(F)F)c2)C(=N)N1c1ccc(Br)cc1`: 242 nM.

Values taken from ChEMBL document CHEMBL5727938, “HIV protease inhibitors” (2020).
